Assay results published in ChEMBL document CHEMBL5352386 (Eur J Med Chem, 2022).
Active and inactive are the calls of the source. The calls are words filed in the database; no cut-off is given here.

Experiments:
Cholinesterase [1] = target: Cholinesterase (Equus caballus, UniProt P81908); assay: Inhibition of equine serum BuChE using butyrylthiocholine iodide as substrate incubated for 10 mins followed by substrate addition by DTNB-reagent based Ellman's colorimetric assay
Cholinesterase [2] = target: Cholinesterase (Homo sapiens, UniProt P06276); assay: Inhibition of human BuChE using butyrylthiocholine iodide as substrate incubated for 10 mins followed by substrate addition by DTNB-reagent based Ellman's colorimetric assay
Sequence of Cholinesterase (Homo sapiens, UniProt P06276) (P06276 whole entry): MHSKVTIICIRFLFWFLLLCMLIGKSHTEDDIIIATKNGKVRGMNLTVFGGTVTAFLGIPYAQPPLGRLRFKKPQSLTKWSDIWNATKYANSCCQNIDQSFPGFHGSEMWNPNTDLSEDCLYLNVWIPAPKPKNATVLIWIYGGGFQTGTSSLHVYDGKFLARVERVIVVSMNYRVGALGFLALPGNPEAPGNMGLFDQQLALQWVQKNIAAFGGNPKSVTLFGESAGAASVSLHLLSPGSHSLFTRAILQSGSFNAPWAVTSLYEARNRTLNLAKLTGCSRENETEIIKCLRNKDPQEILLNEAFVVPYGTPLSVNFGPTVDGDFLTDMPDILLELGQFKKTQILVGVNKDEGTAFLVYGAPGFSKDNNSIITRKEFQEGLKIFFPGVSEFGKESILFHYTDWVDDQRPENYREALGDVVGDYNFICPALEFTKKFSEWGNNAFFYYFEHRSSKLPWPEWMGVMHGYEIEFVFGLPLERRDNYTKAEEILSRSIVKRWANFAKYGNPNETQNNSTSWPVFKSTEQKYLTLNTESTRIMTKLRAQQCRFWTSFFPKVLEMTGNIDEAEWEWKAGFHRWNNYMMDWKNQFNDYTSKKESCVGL

PC-12 [3] = assay: Cytotoxicity against rat PC12 cells assessed as inhibition of cell growth measured after 24 hrs by MTT assay; assay type: functional, cell-based; conditions: PC-12, 24 h
SH-SY5Y [4] = assay: Cytotoxicity against human SH-SY5Y cells assessed as inhibition of cell growth measured after 24 hrs by MTT assay; assay type: functional, cell-based
[5] = Cytotoxicity against mouse BV-2 cells assessed as survival rate at 100 uM measured after 24 hrs by MTT assay relative to control; assay type: toxicity, cell-based; conditions: read-out: Survival
L02 [6] = assay: Cytotoxicity against human L02 cells assessed as inhibition of cell growth measured after 24 hrs by MTT assay; assay type: functional, cell-based; conditions: L02, 24 h
PC-12 [7] = assay: Cytotoxicity against rat PC12 cells assessed as survival rate at 100 uM measured after 24 hrs by MTT assay relative to control; conditions: PC-12, 24 h, read-out: Survival
[8] = Cytotoxicity against mouse BV-2 cells assessed as inhibition of cell growth measured after 24 hrs by MTT assay; assay type: toxicity, cell-based
L02 [9] = assay: Cytotoxicity against human L02 cells assessed as survival rate at 100 uM measured after 24 hrs by MTT assay relative to control; assay type: functional; conditions: read-out: Survival
SH-SY5Y [10] = assay: Cytotoxicity against human SH-SY5Y cells assessed as survival rate at 2.5 uM measured after 24 hrs by MTT assay relative to control; assay type: functional; conditions: read-out: Survival
[11] = Cytotoxicity against mouse BV-2 cells assessed as survival rate at 2.5 uM measured after 24 hrs by MTT assay relative to control; assay type: toxicity, cell-based; conditions: read-out: Survival
L02 [12] = assay: Cytotoxicity against human L02 cells assessed as survival rate at 2.5 uM measured after 24 hrs by MTT assay relative to control; assay type: functional; conditions: read-out: Survival
SH-SY5Y [13] = assay: Cytotoxicity against human SH-SY5Y cells assessed as survival rate at 100 uM measured after 24 hrs by MTT assay relative to control; assay type: functional; conditions: read-out: Survival
Mus musculus [14] = assay: Neuroprotective activity against Abeta42 induced cognition impairement in AD mouse model assessed as reduction in latency time to platform at 10 mg/kg, po measured after 14 days by Morris water maze analysis; assay type: functional, organism-based; conditions: time 14.0 day
Mus musculus [15] = assay: Neuroprotective activity against Abeta42 induced cognition impairement in AD mouse model assessed as reduction in confusion of escape trajectory at 10 mg/kg, po measured after 14 days; assay type: functional, organism-based; conditions: time 14.0 day

Sequence of Cholinesterase (Equus caballus, UniProt P81908) (P81908 whole entry): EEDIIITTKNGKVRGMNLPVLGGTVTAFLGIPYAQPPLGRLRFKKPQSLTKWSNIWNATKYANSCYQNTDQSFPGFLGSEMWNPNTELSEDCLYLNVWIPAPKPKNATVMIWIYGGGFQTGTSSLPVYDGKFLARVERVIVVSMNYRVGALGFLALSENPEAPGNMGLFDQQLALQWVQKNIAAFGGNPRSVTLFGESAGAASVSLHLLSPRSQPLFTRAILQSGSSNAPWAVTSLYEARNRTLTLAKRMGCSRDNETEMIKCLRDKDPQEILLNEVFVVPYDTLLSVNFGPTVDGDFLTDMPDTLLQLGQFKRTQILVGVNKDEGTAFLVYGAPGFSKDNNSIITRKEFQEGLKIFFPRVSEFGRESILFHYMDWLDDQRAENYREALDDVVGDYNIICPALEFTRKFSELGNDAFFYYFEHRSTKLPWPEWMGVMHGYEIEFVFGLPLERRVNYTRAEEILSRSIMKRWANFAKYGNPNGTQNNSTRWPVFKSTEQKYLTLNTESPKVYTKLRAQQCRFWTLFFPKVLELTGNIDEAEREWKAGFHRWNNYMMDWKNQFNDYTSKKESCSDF

| SMILES | IC50 (Cholinesterase [1]) [µM] | IC50 (Cholinesterase [2]) [µM] | IC50 (SH-SY5Y [4]) [µM] | IC50 (L02 [6]) [µM] | viability at 100 µM (PC-12 [7]) [%] | IC50 at 24 h [8] [µM] | also measured |
| --- | --- | --- | --- | --- | --- | --- | --- |
| Nc1nonc1-c1nc2ccccc2n1CC(=O)Nc1cc(Cl)cc(C(F)(F)F)c1 | 0.00263 | 0.113 | 10.6 | 2.48 | – | – | IC50 (PC-12 [3]): 46.2 µM; viability at 24 h, 100 µM [5]: 90% |
| COC(=O)c1cc(NC(=O)Cn2c(-c3nonc3N)nc3ccccc32)cc(C(=O)OC)c1 | 0.00148 | 0.222 | 58 | – | 50.5 | 40.5 | viability at 100 µM (L02 [9]): 84% |
| Nc1nonc1-c1nc2ccccc2n1CC(=O)Nc1cc(F)cc(C(F)(F)F)c1 | 0.255 | 0.155 | – | – | 74.4 | – | viability at 2.5 µM (SH-SY5Y [10]): 23.4%; viability at 24 h, 2.5 µM [11]: 39.5%; viability at 2.5 µM (L02 [12]): 39.5% |
| Nc1nonc1-c1nc2ccccc2n1CC(=O)Nc1ccc([N+](=O)[O-])c(Br)c1 | 0.0337 | 0.73 | – | 5.49 | 51.4 | 5.49 | viability at 100 µM (SH-SY5Y [13]): 70.5% |
| COc1cc2c(cc1OC)C(=O)C(CC1CCN(Cc3ccccc3)CC1)C2 (stereo unspecified) | – | – | – | – | – | – | Activity (Mus musculus [14]): Active; Activity (Mus musculus [15]): Active |
